Data on four molecules can be found in PMC9300616, “Grape seed proanthocyanidin extract inhibits DNA and protein damage and labile iron, enzyme, and cancer cell activities” (Scientific Reports, 2022).

SMILES strings stand for the structures.

For one series, the system named is ferritin. In words: Labile iron inhibition assay (superoxide-dependent iron release from ferritin). The class given is biochemical. The note with it: for Labile Iron IC50: inhibition of iron release from ferritin, mean ± SD of three experiments. On the procedure: The mixture was illuminated using a fluorescent lamp for 90 min at 25 °C. The labile iron content was measured as described by Ibrahim et al.[22].

The next series deals with pBR322 plasmid DNA. Kind of series: DNA damage by free radicals (H2O2 + UV), agarose gel. The note with it: for supercoiled (SC) form of pBR322 DNA: H2O2 + UV; for DNA damage inhibition IC50: pBR322 DNA + H2O2 + UV, mean ± SD of three experiments. The class given is biochemical. How it is done: The assay was performed using the method described by Habib et al.[17]. Briefly, 6 μL of 30% H2O2 was added to an Eppendorf tube with a volume of 20 μL containing 6 μL of PBS buffer, 0.2 μg of pBR322 DNA in 2 μL of 50 mM PBS (pH 7.4), and 4 μL of samples. The reactions were initiated by UV irradiation and sustained for 5 min on the surface of a UV transilluminator TFM-26 (UVP, Upland, CA, USA), with an intensity of […] at 312 nm at room temperature. At the end of the reaction, the samples were run on 0.8% agarose. […] Vitamin C and Rutin were used as positive controls.

A short description of series [1]: ABTS free radical-scavenging assay. The class given is biochemical. The note with it: for ABTS IC50: concentration that scavenges free radicals by 50%, mean ± SD of three experiments. How it is done:
Determination was conducted based on the method reported by Platat et al.[62]. The results were expressed as the percentage of ABTS^· radical inhibition calculated using Eq. (1) as described above.

The next series concerns the target T1, Porcine α-amylase (Sus scrofa, UniProt P00690).
T1 sequence (P00690 16-511): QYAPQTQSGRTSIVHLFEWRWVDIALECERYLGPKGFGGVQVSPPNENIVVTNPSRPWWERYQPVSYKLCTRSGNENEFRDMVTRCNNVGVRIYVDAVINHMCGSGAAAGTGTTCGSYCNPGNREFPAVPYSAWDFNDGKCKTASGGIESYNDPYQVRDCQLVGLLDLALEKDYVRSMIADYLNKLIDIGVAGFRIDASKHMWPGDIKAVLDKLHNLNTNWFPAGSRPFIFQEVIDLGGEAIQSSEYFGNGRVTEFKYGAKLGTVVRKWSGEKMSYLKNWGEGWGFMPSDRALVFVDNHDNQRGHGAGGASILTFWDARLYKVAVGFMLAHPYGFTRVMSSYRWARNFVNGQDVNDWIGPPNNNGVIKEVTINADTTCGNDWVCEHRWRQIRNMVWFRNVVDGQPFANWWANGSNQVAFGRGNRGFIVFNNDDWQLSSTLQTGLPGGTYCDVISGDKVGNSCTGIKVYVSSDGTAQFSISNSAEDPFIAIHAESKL
In words: Porcine α-amylase inhibition assay. The class given is biochemical. As to conditions: mean ± SD of three experiments. How it is done: Inhibition of porcine α-amylase activity was described by Habib et al.[17]. […] For 10 min, the mixture was incubated at 25 °C, and then 50 µL 1% starch solution in 20 mM sodium phosphate buffer at pH 6.9 with 6 mM NaCl was added. The mixture was incubated at 25 °C, followed by addition of a color reagent (1 mL dinitrosalicylic acid). To stop the reaction, the mixture was kept for 10 min in a water bath at 100 °C and then cooled to 25 °C. 1 mL of deionized water was added, and the absorbance was read at 540 nm using a 96-well microplate reader. Inhibition of porcine α-amylase was estimated using Eq. (1) as described above.

For a further series, the target named is mushroom tyrosinase. In words: Tyrosinase inhibition assay. The class given is biochemical. The note with it: mean ± SD of three experiments. On the procedure:
Tyrosinase inhibitory activity was measured as described by Habib et al.[17]. […] After 10 min of incubation at 37 °C, 1 mL of mushroom tyrosinase (50 units/mL, dissolved in 0.2 M phosphate buffer, pH 6.8), was added to the mixture. The absorbance was recorded after 10 min at 475 nm. A 50% ethanol solution was used as a blank, and 1 mL of deionized water was used as the control. % Tyrosinase inhibitory activity was calculated according to Eq. (1) as described above.

For series [2], the system named is Bovine Serum Albumin (BSA). Kind of series: Protein oxidation induced by AAPH, SDS-PAGE. As to conditions: for Fragmentation of BSA reduced by: AAPH 30 min.
Procedure: Alkylperoxyl radical-induced oxidation of Bovine Serum Albumin (BSA) was performed as described by Habib et al.[17]. In brief, BSA (0.5 mg mL^−1) was incubated with AAPH (20 mM) in the presence or absence of different extracts in a shaking water bath at 37 °C for 30 min. A protein sample without AAPH was used as control. After treatment, protein samples were mixed with loading buffer and heated at 100 °C for 5 min. An aliquot of each sample was loaded and separated using 10% SDS-PAGE under reducing conditions. The free stained gels were imaged using a ChemiDoc MV gel documentation system (Bio-Rad, Hercules, CA, USA). To determine the amount of protein damage, band intensity was determined using the Image Lab 4.1 software (version 6.1.0 build 7) (Bio-Rad, Hercules, CA, USA). The optical density of each band was determined and standardized for the control group.
Series [3] is described as follows: DPPH free radical-scavenging assay. The note with it: concentration that scavenges free radicals by 50%; mean ± SD of three experiments. The series is classed as biochemical. How it is done:
The estimation was based on the method reported by Habib et al.[61]. The results were expressed as the percentage inhibition of the DPPH^· radical. The percentage of inhibition of DPPH^· radical was calculated using the following equation:1 %ofDPPH^·inhibition=Abscontrol-Abssample/Abscontrol×100
where Abs control is the absorbance of DPPH^· solution without the tested sample.
(Loss of DPPH colour is used to gauge radical scavenging.)

As to `O=C(O)c1cc(O)c(O)c(O)c1` [Gallic acid], the “percentage inhibition of iron release from ferritin” value (shortened to “percentage inhibition”) in the series on ferritin (at 10 μg) amounted to 50.68 ± 0.18%; in the series on ferritin (at 50 μg), 59.22 ± 0.81%; in the series on ferritin (at 100 μg) it was 68.55 ± 0.38%. Moreover, the “Labile Iron IC50” value in the series on ferritin is recorded as 4.86 ± 0.23 µg/mL.

Usually IC50 stands for the concentration that inhibits the measured activity by half. Higher therefore signals a need for much substance. As to `C[C@@H]1O[C@@H](OC[C@H]2O[C@@H](Oc3c(-c4ccc(O)c(O)c4)oc4cc(O)cc(O)c4c3=O)[C@H](O)[C@@H](O)[C@@H]2O)[C@H](O)[C@H](O)[C@H]1O` [Rutin], the “supercoiled (SC) form of pBR322 DNA” value is recorded as 13.50 ± 0.52% in the series with pBR322 plasmid DNA (at 0.1 mg/mL) and 66.50 ± 0.57% with pBR322 plasmid DNA (at 5 mg/mL). The “DNA damage inhibition IC50” value with pBR322 plasmid DNA turned out to be 2.45 ± 0.13 µg/mL. Also, the ABTS scavenging in series [1] (at 0.1 mg/mL) was found to be 48.10 ± 0.07%; in series [1] (at 5 mg/mL), 90.13 ± 0.04%. Moreover, the “ABTS IC50” value in series [1] stood at 6.31 ± 1.00 µg/mL. In addition, the “percentage inhibition” value is 85.32 ± 0.56% in the series on ferritin (at 10 μg), 90.30 ± 0.01% in the series on ferritin (at 50 μg) and 96.65 ± 0.01% with ferritin (at 100 μg). Also, the “Labile Iron IC50” value with ferritin is 0.08 ± 0.14 µg/mL. This molecule showed an IC50 against Porcine α-amylase of 130 µM. Besides, at mushroom tyrosinase, the “Tyrosinase IC50” value came to 72.08 ± 0.54 µg/mL. Besides, the “Fragmentation of BSA reduced by” value amounted to 94.12 ± 0.20% in series [2] (at 0.1 mg/mL) and 99.10 ± 0.24% in series [2] (at 5 mg/mL). Further, the “BSA damage inhibition IC50” value in series [2] (BSA + AAPH, mean ± SD of three experiments) is reported as 4.42 ± 0.24 µg/mL.

Regarding `Cc1c(C)c2c(c(C)c1O)CCC(C)(C(=O)O)O2` (centres unmarked) [Trolox], the “percentage inhibition” value in the series on ferritin (at 10 μg) came out at 39.33 ± 0.54%; in the series with ferritin (at 50 μg) it was 84.79 ± 3.00%; in the series on ferritin (at 100 μg), 87.87 ± 1.87%. For the same molecule, the “Labile Iron IC50” value in the series with ferritin is 12.57 ± 0.64 µg/mL.

Take `O=C1O[C@H]([C@@H](O)CO)C(O)=C1O` [VC, vitamin C]: the “supercoiled (SC) form of pBR322 DNA” value in the series on pBR322 plasmid DNA (at 0.1 mg/mL) is 11.50 ± 0.63%; in the series with pBR322 plasmid DNA (at 5 mg/mL) it was 19.10 ± 0.91%. Besides, in the series with pBR322 plasmid DNA, the “DNA damage inhibition IC50” value is listed as 42.03 ± 1.06 µg/mL. The ABTS scavenging is 88.29 ± 0.22% in series [1] (at 0.1 mg/mL) and 92.69 ± 0.32% in series [1] (at 5 mg/mL). Moreover, in series [1], the “ABTS IC50” value amounted to 0.68 ± 0.12 µg/mL. Moreover, the “Porcine α-amylase IC50” value on Porcine α-amylase amounted to 87.24 ± 0.71 µg/mL. Further, the “Tyrosinase IC50” value at mushroom tyrosinase worked out at 42.74 ± 0.23 µg/mL. Further, the “DPPH IC50” value in series [3] is 880 ± 0.52 µg/mL.
